Data on two compounds can be found in patent US20180214506A1, “COMBINATION ADMINISTRATION OF GNRH ANTAGONISTS” (ANTEV LIMITED, priority 2017, published 2018).

Values after ≈ are worked out from the molar mass of the structure shown. Structures can show the parent of a compound that is named as a salt. Where two headings read alike, the source gives them in different places. Non-standard residues stand in square brackets, D forms with d. Residues, ends and D or L forms follow the SMILES beside them. Phe(4-Cl) = N[C@@H](Cc1ccc(Cl)cc1)C(=O)O; dPhe(4-Cl) = N[C@H](Cc1ccc(Cl)cc1)C(=O)O; d2Nal = N[C@H](Cc1ccc2ccccc2c1)C(=O)O; d(hCit) = NC(=O)NCCCC[C@@H](N)C(=O)O; Lys(iPr) = CC(C)NCCCC[C@H](N)C(=O)O; d3Pal = N[C@H](Cc1cccnc1)C(=O)O

Data set [1] is described as follows: Phase I study D-84812-Z012, single s.c. injection: pharmacokinetics of teverelix. The class given is in vivo, human.
Data set [2] in a line: Phase I study D-84812-Z012, single s.c. injection: safety and tolerability. Conditions: doses up to 90 mg, 32 healthy male volunteers. It counts as in vivo, human.
Data set [3] can be described thus: Phase II study 2 x 90 mg i.m. Days 1 and 8 (A014): plasma PK of teverelix. It counts as in vivo. Conditions: male, human, im; for AUC(0-t) / Cmax / Tmax / AUC(0-inf) / half-life: 90 mg; for AUC(0-t): N=14, read-out: AUC (0-t) Geometric mean; for Cmax: N=14, read-out: Cmax (obs) Geometric mean; for Tmax: N=14, read-out: Tmax (obs) Median. How it is done:
In order to test the hypothesis that and IM injection of a GnRH antagonist could be useful as part of a prostate cancer regimen, a Phase II Multicenter, Open-label Study Investigating the Pharmacokinetics, Pharmacodynamics, Efficacy and Safety of a Teverelix 90 mg, TFA formulation was conducted.
(§1) The primary objective was to assess the duration of action of an initial “loading” dose regimen of Teverelix TFA delivered IM in terms of suppression of testosterone to below castrate level (0.5 ng/mL [2 nmol/L]). The secondary objectives were to assess the pharmacodynamics of teverelix in terms of ability to suppress and to maintain plasma testosterone levels below castration level (<0.5 ng/mL [2 nmol/L]) for 3 weeks; to assess the effects on luteinising hormone (LH) and prostate specific antigen (PSA); and to assess the safety of Teverelix in terms of incidence of local and systemic tolerability (adverse events [AEs] and changes in laboratory parameters).
(§2) This was a multicenter, open-label, non-controlled study in 14 patients diagnosed with advanced prostate cancer. Patients were screened for inclusion in the study between 1 and 7 days before first administration. Each patient received 2 intramuscular (i.m.) injections of 90 mg Teverelix TFA, 7 days apart, on Study Days 1 and 8. […] Blood samples were taken for the evaluation of teverelix, testosterone and LH in plasma, and PSA levels. Safety and tolerability were assessed throughout the study by monitoring local and systemic tolerability (AEs, clinical laboratory tests, vital signs an electrocardiogram [ECG]).
The geometric means for Cmax(obs), AUC(0-t), and AUC(0-∞) (along with respective coefficients of variations presented in parenthesis); Tmax median (along with the range of Tmax values presented in parenthesis); and arithmetic mean for T1/2,elim (along with standard deviation presented in parenthesis) are presented in Table 1 for each dose of teverelix IM.
The combined geometric means for AUC and AUC(∞) (along with respective coefficients of variations presented in parenthesis); and arithmetic mean for apparent clearance (CL/F) (along with standard deviation presented in parenthesis) for the two i.m. doses of teverelix are presented in Table 2.

Data set [4] in a line: Phase II study 2 x 90 mg i.m. (A014): tolerability. The class given is in vivo, human. Conditions: A014: i.m. 90 mg day 1 and 8. How it is done: as §1, §2
(§3) Comparison of s.c. injection 90 mg days 1, 2 and 3 vs. IM injection day 1 and 8.

Data set [5] in a line: Water solubility of teverelix. It counts as physicochemical. As for the experimental part: In some instances, the GnRH antagonist can be teverelix ((Ac-D-NaID-pClPhe-D-Pal-Ser-Tyr-D-Hci-Leu-Lys(iPr)-Pro-D-Ala-NH2). Teverelix is a synthetic decapeptide with a water solubility of approximately 10 mg/mL.
A short description of data set [6]: Phase I study EP-24332T-A004, repeated s.c. injections: tolerability. It counts as in vivo, human. The settings on record: 2 doses of 60 mg or 90 mg s.c. at 24 h or 48 h interval. How it is done: In a second Phase I study (EP-24332T-A004), a second injection was administered 24 h or 48 h after the first in order to increase and prolong the initial peak, as well as increase the teverelix level and consequently the number of subjects castrated. As the previous Phase I study had shown 10 mg and 30 mg to be insufficient to provide a long-term suppression, 2 doses of 60 mg or 90 mg (6 subjects per group) or placebo (4 subjects) were administered at a 24 h interval and 2 doses of 90 mg at a 48 h interval. […] No critical safety findings were reported. […] The protocol of the study included 6 subjects who received 90 mg Teverelix TFA on D1; D2; D3.

The nature of data set [7]: Clinical study A013, s.c. injection 90 mg days 1, 2 and 3: tolerability. The settings on record: A013: s.c. 90 mg days 1, 2 and 3. It counts as in vivo, human. As for the experimental part:
as §3

The conditions of data set [8]: compared with degarelix; cited from earlier work.

In the case of `CC(=O)N[C@H](Cc1ccc2ccccc2c1)C(=O)N[C@H](Cc1ccc(Cl)cc1)C(=O)N[C@H](Cc1cccnc1)C(=O)N[C@@H](CO)C(=O)N[C@@H](Cc1ccc(O)cc1)C(=O)N[C@H](CCCCNC(N)=O)C(=O)N[C@@H](CC(C)C)C(=O)N[C@@H](CCCCNC(C)C)C(=O)N1CCC[C@H]1C(=O)N[C@H](C)C(N)=O` [Teverelix TFA, teverelix trifluoroacetate] (Ac-[d2Nal][dPhe(4-Cl)][d3Pal]SY[d(hCit)]L[Lys(iPr)]P[dA]-NH2), the dose proportionality entry in data set [1] (between the 60 mg and 90 mg doses, single s.c.) was “Dose proportionality was demonstrated”. The half-life in data set [1] (human, plasma, sc, single s.c. injection, doses up to 90 mg, healthy male volunteers) was 252 to 331 h; in data set [3] (Day 1 (Dose 1): 1 x 90 mg i.m., n = 8, read-out: T1/2,elim Arithmetic mean (converted)) it was 167 h; in data set [3] (Day 8 (Dose 2): 1 x 90 mg i.m., N=14, read-out: T1/2,elim Arithmetic mean (converted)), 404 h. Besides, the tolerability result in data set [2] is recorded as “tolerated well”; in data set [4], “Very good/good for all patients”. Besides, the results for the AUC(0-t) in data set [3] (Day 1 (Dose 1): 1 x 90 mg i.m.) and in data set [3] (Day 8 (Dose 2): 1 x 90 mg i.m.) were 1730 ng·h/mL and 8360 ng·h/mL, respectively. Moreover, the Cmax was determined as 21.5 ng/mL in data set [3] (Day 1 (Dose 1): 1 x 90 mg i.m.) and 38 ng/mL in data set [3] (Day 8 (Dose 2): 1 x 90 mg i.m.). Moreover, the values for the Tmax in data set [3] (Day 1 (Dose 1): 1 x 90 mg i.m.) and in data set [3] (Day 8 (Dose 2): 1 x 90 mg i.m.) were 2 h and 1 h, respectively. Also, the AUC(0-inf) is 4610 ng·h/mL in data set [3] (Day 1 (Dose 1): 1 x 90 mg i.m., n = 8, read-out: AUC (0-∞) Geometric mean) and 9380 ng·h/mL in data set [3] (Day 8 (Dose 2): 1 x 90 mg i.m., N=14, read-out: AUC (0-∞) Geometric mean). Further, the CL/F in data set [3] (2 x 90 mg i.m., N=14, read-out: CL/F Arithmetic mean (converted)) is 249 mL/min.

Take `CC(=O)N[C@H](Cc1ccc2ccccc2c1)C(=O)N[C@@H](Cc1ccc(Cl)cc1)C(=O)N[C@H](Cc1cccnc1)C(=O)N[C@@H](CO)C(=O)N[C@H](Cc1ccc(O)cc1)C(=O)N[C@H](CCCCNC(N)=O)C(=O)N[C@@H](CC(C)C)C(=O)N[C@@H](CCCCNC(C)C)C(=O)N1CCC[C@H]1C(=O)N[C@H](C)C(N)=O` [teverelix, Ac-D-NaID-pClPhe-D-Pal-Ser-Tyr-D-Hci-Leu-Lys(iPr)-Pro-D-Ala-NH2] (Ac-[d2Nal][Phe(4-Cl)][d3Pal]S[dY][d(hCit)]L[Lys(iPr)]P[dA]-NH2): in data set [5], the solubility was about 10000 µg/mL (≈ 6.85 mM). Moreover, in data set [6], the “local reactions at the injection sites” value was “only mild local indurations at the injection sites” and the tolerability entry was “tolerated well”. Further, the tolerability entry in data set [7] is reported as “Very good/good for all patients”. The “local irritation at the administration site” value in data set [8] is given as “less local irritation at the administration site than degarelix”.
